Columns and labels:
[1] = Relaxivity in PBS (Bruker mq60, 60 MHz); format: physicochemical; settings: pH 7.4 PBS at 1.4 T, 37° C.
Method: The relaxivity of Compound ID Nos. 1, 2 and 4 were determined in PBS at 37° C. using a Bruker mq60 spectrometer operating at 60 MHz (1.4 tesla). Samples were equilibrated at concentrations ranging from 0-200 μM for at least 30 minutes at 37° C. T1 was measured using an inversion recovery sequence. Relaxivities were calculated by subtracting the relaxation rate of the buffer […] and then dividing the result by the concentration of Compound.

[2] = target: Native canine Collagen Type I and III protein; experiment: Collagen binding assay, dried dog collagen plate; settings: 37° C., pH 7.4; collagen 5 μM; fit to 1 binding site
Method: Canine collagen (Native canine Collagen Type I and III protein, YO protein AB, cat#739) is dissolved in 0.5 M acetic acid at 3.3 mg/ml by vortexing and shaking overnight at 4° C. The solution is then dialyzed against 10 mM Phosphate (NaH2PO4), pH 4.2 at 4° C. with three changes of the dialysis buffer.
Ice-cold 1×PBS pH 10.8 is added to the collagen solution for a final collagen concentration of 10 μM, pH 7.4. Collagen solutions are gelled and dried down in the wells of a 96 well microtiter plate (Corning Polystyrene Flat Bottom, cat#3641). 70 μl of 10 μM collagen is aliquoted into each well in every other lane in the plate (48 wells) and the plate is incubated at 37° C. for 18 hours to form a gel and evaporate to dryness. Ungelled collagen is removed by washing the collagen films with 200 μl 1×PBS pH 7.4 (four times, 15 min per wash). The thin collagen fibril film remains, coating the bottom of each well. After washing by PBS the plate is again dried at 37° C. for 2 hours and is stored at −20° C. The final well content of gelled collagen is measured by determination of hydroxyproline and is around 180 μg/ml.
a serial dilution of 0.2 μM-30 μM of the peptide chelate is prepared in PBS, pH 7.4 (˜300 μL of solution for each concentration). 90 μl of each concentration is also reserved in a HPLC glass vial as a sample to measure the total concentration. 140 μL of each dilution of peptide chelate is added to wells containing and non-containing collagen (control for nonspecific plastic binging). The plate is then incubated on a shaker table (300 rpm) for 2 hours at room temperature to allow the compound to bind. […] The concentration of free, unbound compound in the sample supernatants and the concentration of compound in the reserved (total) sample are determined by ICP-MS (Agilent 7500, gadolinium concentration). The concentration of compound bound to collagen is determined as [bound]=[total]−[unbound].
The binding of compounds to human, rat and dog collagen (5 μM) was measured over the concentration range 0.2-5 μM of Comp ID Nos.: 1-4. […]

[3] = tested on: hypoperfused vs normally perfused myocardium; format: in vivo, canine
Method: To mimic severe ischemia, a canine model was used in which an inflatable variable vascular occluder was placed around the left anterior descending coronary artery (LAD) to allow occlusion and reperfusion. Imaging was performed on a 3 T clinical scanner 4 days after implantation of the occluder. The conventional saturation recovery pulse sequence for stress perfusion imaging was compared with a segmented inversion method. The purpose of the segmented inversion method was to leverage the steady-state properties of Compound ID No. 1. This segmented inversion recovery pulse sequence provides greater T1 weighting, higher spatial resolution, and greater myocardial tissue contrast. Additionally, since imaging is delayed, the entire heart can be imaged. After baseline MRI scanning, the balloon was inflated. Compound ID No. 1 was administered as an i.v. bolus at a dose of 7.5 μmol/kg one minute after coronary artery occlusion. The occlusion was maintained for an additional 4 minutes, after which blood flow was restored. Imaging was performed prior to occlusion release and at multiple time points following reperfusion (up to 120 minutes after reperfusion, see FIG. 20)
To assess relative perfusion, labeled microspheres were administered at 3 timepoints in the study. La-labeled microspheres were given before coronary artery occlusion, Au-labeled microspheres were given during coronary artery occlusion, and Lu-labeled microspheres were given after reperfusion. In addition, prior to euthanasia, the variable occluder was re-inflated and fluorescent microspheres were administered in combination with KCl to arrest the heart and visually delineate the area of hypo-perfusion. The animal was sacrificed at ca. 120 minutes post Compound ID No. 1 and the heart removed and sectioned according to American Heart Association guidelines (M D Cerqueira et al, Circulation, 2002, 105:539-42). At autopsy under ultraviolet light, the hypo-perfused myocardium was differentiated from normal myocardium due to the lack of fluorescence in the hypo-perfused tissue. Based on the fluorescence, a sample of the ischemic territory and a sample of the remote myocardium were taken for ex vivo analysis. These tissue samples were weighed, digested in nitric acid, and analyzed for the elements La, Au, Lu (the three microsphere injections) and gadolinium (Compound ID No. 1) using ICP-MS. Concentrations in the ischemic tissue were compared to that of the remote myocardium to assess regional flow and probe uptake.
Data were quantitatively evaluated at pre-contrast, at 6 minutes post-contrast, and 15 minutes post-contrast using signal-to-noise ratios (SNR) for normally perfused myocardium, SNR for hypo-perfused myocardium, and contrast to noise ratio (CNR) for normal-to-hypoperfused myocardium, Tables 8-10 and FIG. 23. […]

[4] = tested on: fibrotic liver tissue; experiment: Uptake into fibrotic liver tissue, bile duct ligated (BDL) rats; format: in vivo, Sprague-Dawley rats; settings: BDL rats vs sham, ~7.5 μmol/kg, 90 min
Method: Bile duct ligated (BDL) rats are selected to assess the uptake of the complexes in fibrotic liver tissue as compared to sham operated animals. In this model, the common bile duct is surgically tied off and the resultant cholestosis results in fibrosis around the bile ducts. Laparotomy is performed in Sprague-Dawley rats with double ligation of the common bile duct with a section between the two ligatures (2-3% isoflurane anesthesia). […] Fibrosis is evident 15 days after ligation and increases with time up to 30 days after ligation, providing defined endpoints for imaging of moderate and severe fibrosis. Studies are conducted by injecting Compound ID. No. 1 at a dose ˜7.5 μmol/kg. After 90 min, the animals are sacrificed and the 4 liver lobes and abdominal muscle are removed and the gadolinium concentration quantified by ICP-MS and collagen content quantified using hydroxyproline concentration.

CC(C)C[C@H](NC(=O)[C@@H]1CSSC[C@H](NC(=O)[C@H](Cc2c[nH]cn2)NC(=O)[C@H](Cc2c[nH]c3ccccc23)NC(=O)[C@H](CCCCNC(=O)CC[C@H](C(=O)O)N2CCN(CC(=O)O)CCN(CC(=O)O)CCN(CC(=O)O)CC2)NC(=O)CNC(=O)CC[C@H](C(=O)O)N2CCN(CC(=O)O)CCN(CC(=O)O)CCN(CC(=O)O)CC2)C(=O)N[C@@H]([C@@H](C)O)C(=O)N[C@@H]([C@@H](C)O)C(=O)N[C@@H](CCCCNC(=O)CC[C@H](C(=O)O)N2CCN(CC(=O)O)CCN(CC(=O)O)CCN(CC(=O)O)CC2)C(=O)N[C@@H](Cc2ccccc2)C(=O)N2CCC[C@H]2C(=O)N[C@@H](Cc2c[nH]cn2)C(=O)N[C@@H](Cc2c[nH]cn2)C(=O)N[C@@H](Cc2ccc(O)cc2)C(=O)N1)C(=O)N[C@@H](Cc1ccc(O)cc1)C(=O)N[C@@H](Cc1ccc(-c2ccccc2)cc1)C(N)=O [Compound ID No. 1]
R1 (relaxivity) [1]: 43.4 mM⁻¹ s⁻¹
Kd [2]: 4.4 µM
ΔCNR relative to EP-3600 study ([3]; 7.5 μmol/kg vs 12.3 μmol/kg EP-3600 (pig, literature)): 3 to 4 fold
visualization of myocardial perfusion defect ([3]; MRI after 7.5 μmol/kg): readily visualized
change in SNR of hypoperfused myocardium vs pre-contrast ([3]; post injection): not significantly higher compared to the pre-contrast image
change in SNR of normally perfused myocardium vs pre-contrast ([3]; post injection, persists at 15 min, P<0.01): strong and significant increase in SNR
uptake into fibrotic liver tissue [4]: consistent with uptake of Compound ID No. 1 into fibrotic-rich liver tissue

Source: patent US20160375155A1, “Collagen Imaging Compositions” (Collagen Medical, LLC, priority 2015, published 2016)
